The results in this text go back to ChEMBL document CHEMBL5375989, “Pioneering 4,11-Dioxo-4,11-dihydro-1H-anthra[2,3-d]imidazol-3-ium Compounds as Promising Survivin Inhibitors by Targeting ILF3/NF110 for Cancer Therapy” (J Med Chem, 2023).

Data set [1] can be described thus: Selectivity index, ratio of IC50 for mouse L929 cells to IC50 for human A549 cells. The following applies: for selectivity ratio: L929 cells and A549 cells, read-out: Ratio IC50. The format is toxicity.
Data set [2] can be described thus: (§1) Antiproliferative activity against mouse L929 cells assessed as inhibition of cell growth measured after 48 hrs by MTT assay. The format is toxicity, cell-based. The following applies: mouse, L929 cells.
Data set [3] deals with A549. As to the kind of experiment: cells. To be noted: Homo sapiens, A549, 48 h.
Description: (§2) Antiproliferative activity against human A549 cells assessed as inhibition of cell growth measured after 48 hrs by MTT assay
In a further data set the test system is L929. Described as §1. To be noted: l929. The format is toxicity, cell-based.
Data set [4] relates to A549.
Description: as §2

One may read the IC50 as the concentration that gives 50% inhibition. Take `Cn1c2c([n+](C)c1-c1ccccc1F)C(=O)c1ccccc1C2=O`: the selectivity ratio in data set [1] was determined as 10. For the same compound, in data set [2], the 50% inhibitory concentration (IC50) at 48 h was 9.2 µM. Moreover, the half-inhibitory concentration (IC50) in the data set on A549 [3] is 0.92 µM.

With `CCn1c[n+](CC)c2c(OC)ccc(OC)c21`, in data set [1], the selectivity ratio stood at 7. Besides, the half-inhibitory concentration (IC50) at 48 h in data set [2] was found to be 95.1 µM. Further, the half-maximal inhibitory concentration (IC50) in the data set on A549 [3] came to 13.6 µM.

In the case of `CS(=O)(=O)[O-].Cn1c[n+](C)c2c1C(=O)c1ccccc1C2=O`, in data set [1], the “Ratio IC50” value is reported as 1.8. The IC50 with L929 was determined as 0.7 µM; in the data set on A549 [4] it was 0.4 µM.

With `O=C1c2ccccc2C(=O)c2c1n(Cc1ccccc1)c[n+]2Cc1ccccc1`, in data set [1], the selectivity ratio was 47.6. In addition, the half-maximal inhibitory concentration (IC50) at 48 h in data set [2] is 39 µM. 0.82 µM corresponded to half-maximal inhibition in the data set on A549 [3] (IC50).

For the compound `CCCn1c[n+](CCC)c2c1C(=O)c1ccccc1C2=O`, the selectivity ratio in data set [1] came out at 15.1. In data set [2], the IC50 at 48 h worked out at 9.8 µM. This compound came in with an IC50 in the data set with A549 [3] of 0.65 µM.

Turning to `Cn1c[n+](C)c2c1C(=O)c1ccccc1C2=O.O=S(=O)([O-])C(F)(F)F`, the “Ratio IC50” value in data set [1] is listed as 28.6. The IC50 with L929 stood at 2 µM; with A549 [4] it was 0.07 µM.

For the compound `O=C1c2ccccc2C(=O)c2c1n(-c1ccccc1)c[n+]2-c1ccccc1`, the selectivity ratio in data set [1] was found to be 0.87. In data set [2], the half-inhibitory concentration (IC50) at 48 h is 66.9 µM. In the data set with A549 [3], this compound gave an IC50 of 76.7 µM.
